Legend:
Assay in all cases: relative viability (nuclei count vs DMSO), 5 days (fraction); higher = more cells survive
[1] = compound: CC[C@@H]1C(=O)N(C)c2cnc(Nc3ccc(C(=O)NC4CCN(C)CC4)cc3OC)nc2N1C1CCCC1 [BI-2536] + CC1(C)CCC(c2ccc(Cl)cc2)=C(CN2CCN(c3ccc(C(=O)NS(=O)(=O)c4ccc(N[C@H](CCN5CCOCC5)CSc5ccccc5)c(S(=O)(=O)C(F)(F)F)c4)cc3)CC2)C1 [Navitoclax] (partner 0.5 µM)
Method in brief: (§1)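 Nuclei were stained with Hoechst during a one-step fixation (final 0.05% Triton X-100, 1% formaldehyde, 1 ug/ml Hoechst) carried out 5 days after dosing, then counted on 4× images. The cells, lung cancer lines in 1536-well plates, had been dosed by pin tool the day after seeding with one drug alone or a fixed anchor-drug dose plus five library-drug doses (not always all listed) in √10 steps. Relative viability is the nuclei count in treated wells divided by that in vehicle wells, and each value is the median of duplicate plates.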

[2] = compound: CC[C@@H]1C(=O)N(C)c2cnc(Nc3ccc(C(=O)NC4CCN(C)CC4)cc3OC)nc2N1C1CCCC1 [BI-2536] + C[C@]1(O)C[C@@H](c2nc(-c3ccc4ccc(-c5ccccc5)nc4c3)c3c(N)nccn32)C1 [Linsitinib] (partner 1 µM)
Method in brief: as §1

[3] = compound: CC1CC(=O)N(C2=CN=C(N=C2N1C3CCCC3)NC4=C(C=C(C=C4)C(=O)NC5CCN(CC5)C)OC)C [NPK76-II-72-1] + O=C(CCCCCCC(=O)Nc1ccccc1)NO [Vorinostat] (partner 1 µM)
Method in brief: as §1

[4] = compound: CC1CC(=O)N(C2=CN=C(N=C2N1C3CCCC3)NC4=C(C=C(C=C4)C(=O)NC5CCN(CC5)C)OC)C [NPK76-II-72-1] + COc1cccc2cc(-c3nc([C@H]4CC[C@H](C(=O)O)CC4)n4ncnc(N)c34)[nH]c12 [OSI-027] (partner 0.5 µM)
Method in brief: as §1

Cell Line | relative viability ([1]; first compound 0.01 µM) | relative viability ([1]; first compound 0.03162 µM) | relative viability ([1]; first compound 0.1 µM) | relative viability ([1]; first compound 0.3162 µM) | relative viability ([1]; first compound 1 µM) | relative viability ([2]; first compound 0.01 µM) | relative viability ([2]; first compound 0.03162 µM) | relative viability ([2]; first compound 0.1 µM) | relative viability ([2]; first compound 0.3162 µM) | relative viability ([2]; first compound 1 µM) | relative viability ([3]; first compound 0.01 µM) | relative viability ([3]; first compound 0.03162 µM) | relative viability ([3]; first compound 0.1 µM) | relative viability ([3]; first compound 0.3162 µM) | relative viability ([3]; first compound 1 µM) | relative viability ([4]; first compound 0.01 µM) | relative viability ([4]; first compound 0.03162 µM) | relative viability ([4]; first compound 0.1 µM) | relative viability ([4]; first compound 0.3162 µM) | relative viability ([4]; first compound 1 µM)
NCI-H2347 | 0.759 | 0.742 | 0.744 | 0.358 | 0.326 | 0.947 | 0.929 | 0.967 | 0.617 | 0.549 | 0.744 | 0.588 | 0.656 | 0.641 | 0.603 | 0.407 | 0.502 | 0.466 | 0.366 | 0.274
NCI-H2405 | 0.7 | 0.218 | 0.106 | 0.0606 | 0.116 | 0.903 | 0.855 | 0.745 | 0.225 | 0.468 | 0.949 | 0.791 | 1.04 | 1.07 | 1.03 | 0.64 | 0.672 | 0.633 | 0.627 | 0.67
NCI-H3122 | 1 | 0.991 | 0.525 | 0.233 | 0.241 | 1.03 | 1.06 | 1.01 | 0.184 | 0.224 | 0.943 | 0.923 | 1.05 | 1.05 | 1.05 | 0.856 | 0.914 | 0.929 | 0.911 | 1.02
PC-3 [JPC-3] | 0.849 | 0.774 | 0.743 | 0.319 | 0.212 | 0.974 | 0.899 | 1 | 0.756 | 0.259 | 0.807 | – | 0.799 | 0.848 | 0.905 | 0.664 | 0.742 | 0.78 | 0.711 | 0.889
PC-14 | 1.05 | 1.06 | 0.902 | 0.0528 | 0.0559 | 0.988 | 0.987 | 0.943 | 0.727 | 0.0823 | 0.717 | 0.73 | 0.684 | 0.698 | 0.807 | 0.778 | 0.935 | 0.981 | 0.667 | 1.08
RERF-LC-KJ | 0.861 | 0.827 | 0.727 | 0.186 | 0.263 | 0.969 | 0.913 | 0.829 | 0.522 | 0.199 | 0.639 | 0.725 | 0.662 | 0.701 | 0.673 | 0.63 | 0.636 | 0.651 | 0.525 | 0.628
SK-LU-1 | 0.738 | 0.894 | 0.52 | 0.118 | 0.139 | 1.04 | 1.19 | 1.02 | 0.3 | 0.303 | 0.722 | 0.77 | 0.756 | 0.77 | 0.851 | 0.321 | 0.355 | 0.368 | 0.361 | 0.406
SK-MES-1 | 1.21 | 1.37 | 1.14 | 0.126 | 0.139 | 1.08 | 1.01 | 0.979 | 1.02 | 0.176 | 1.06 | 1.05 | 1.12 | 1.17 | 1.22 | 0.585 | 0.617 | 0.583 | 0.661 | 0.742
SW 1573 | 1.04 | 1.05 | 1.05 | 0.0673 | 0.0547 | 0.696 | 0.683 | 0.82 | 0.161 | 0.132 | 0.787 | 0.916 | 0.637 | 0.532 | 0.831 | 0.704 | 0.65 | 0.603 | 0.599 | 0.664
